Assays:
Test in all cases: relative viability (nuclei count vs DMSO), 5 days (fraction); higher = more cells survive
[1] = system: NCI-H1648
Outline: (§1)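 Lung cancer cell lines were seeded in 1536-well plates and dosed by pin tool the next day, with either a single drug or a fixed anchor-drug dose combined with five library-drug doses (not always all listed) spaced in √10 steps. Five days later, one step fixed the cells and stained their nuclei (final 0.05% Triton X-100, 1% formaldehyde, 1 ug/ml Hoechst), and nuclei were counted on 4× images. Relative viability is the nuclei count in treated wells divided by the count in vehicle wells, and each value is the median of duplicate plates.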

[2] = system: HARA
Outline: as §1

[3] = system: PC-14
Outline: as §1

[4] = system: NCI-H460
Outline: as §1

[5] = system: HCC-366
Outline: as §1

[6] = system: HCC-15
Outline: as §1

[7] = system: A-427
Outline: as §1

[8] = system: NCI-H2023
Outline: as §1

[9] = system: COR-L23
Outline: as §1

[10] = system: NCI-H1915
Outline: as §1

[11] = system: NCI-H727
Outline: as §1

[12] = system: HCC-78
Outline: as §1

[13] = system: COR-L 105
Outline: as §1

[14] = system: NCI-H3122
Outline: as §1

[15] = system: NCI-H1437
Outline: as §1

[16] = system: LK-2
Outline: as §1

[17] = system: NCI-H1666
Outline: as §1

[18] = system: NCI-H2405
Outline: as §1

[19] = system: NCI-H1944
Outline: as §1

[20] = system: HCC-44
Outline: as §1

[21] = system: LCLC-97TM1
Outline: as §1

[22] = system: 201T
Outline: as §1

[23] = system: NCI-H1975
Outline: as §1

Nc1cccc2c1CN(C1CCC(=O)NC1=O)C2=O (stereo unspecified) [Lenalidomide] + Cc1cc(Nc2cc(N3CCN(C)CC3)nc(Sc3ccc(NC(=O)C4CC4)cc3)n2)n[nH]1 [Tozasertib] (partner 0.1 µM)
relative viability ([1]; first compound 0.253 µM): 0.578
relative viability ([1]; first compound 0.8 µM): 0.317
relative viability ([1]; first compound 2.53 µM): 0.509
relative viability ([1]; first compound 8 µM): 0.599
relative viability ([2]; first compound 0.253 µM): 0.0944
relative viability ([2]; first compound 2.53 µM): 0.133
relative viability ([2]; first compound 8 µM): 0.103
relative viability ([3]; first compound 0.253 µM): 0.629
relative viability ([3]; first compound 0.8 µM): 0.696
relative viability ([3]; first compound 2.53 µM): 0.706
relative viability ([3]; first compound 8 µM): 0.738
relative viability ([4]; first compound 0.253 µM): 0.393
relative viability ([4]; first compound 0.8 µM): 0.396
relative viability ([4]; first compound 2.53 µM): 0.49
relative viability ([4]; first compound 8 µM): 0.587
relative viability ([5]; first compound 0.253 µM): 0.14
relative viability ([5]; first compound 0.8 µM): 0.128
relative viability ([5]; first compound 2.53 µM): 0.154
relative viability ([5]; first compound 8 µM): 0.131
relative viability ([6]; first compound 0.253 µM): 0.352
relative viability ([6]; first compound 0.8 µM): 0.431
relative viability ([6]; first compound 2.53 µM): 0.446
relative viability ([6]; first compound 8 µM): 0.496
relative viability ([7]; first compound 0.253 µM): 0.197
relative viability ([7]; first compound 0.8 µM): 0.222
relative viability ([7]; first compound 2.53 µM): 0.22
relative viability ([7]; first compound 8 µM): 0.216
relative viability ([8]; first compound 0.253 µM): 0.445
relative viability ([8]; first compound 0.8 µM): 0.403
relative viability ([8]; first compound 2.53 µM): 0.386
relative viability ([8]; first compound 8 µM): 0.519
relative viability ([9]; first compound 0.253 µM): 0.255
relative viability ([9]; first compound 0.8 µM): 0.238
relative viability ([9]; first compound 2.53 µM): 0.229
relative viability ([9]; first compound 8 µM): 0.29
relative viability ([10]; first compound 0.253 µM): 0.45
relative viability ([10]; first compound 0.8 µM): 0.471
relative viability ([10]; first compound 2.53 µM): 0.437
relative viability ([10]; first compound 8 µM): 0.527
relative viability ([11]; first compound 0.253 µM): 0.615
relative viability ([11]; first compound 0.8 µM): 0.585
relative viability ([11]; first compound 2.53 µM): 0.56
relative viability ([11]; first compound 8 µM): 0.756
relative viability ([12]; first compound 0.253 µM): 0.537
relative viability ([12]; first compound 0.8 µM): 0.44
relative viability ([12]; first compound 2.53 µM): 0.443
relative viability ([12]; first compound 8 µM): 0.49
relative viability ([13]; first compound 0.253 µM): 0.351
relative viability ([13]; first compound 0.8 µM): 0.31
relative viability ([13]; first compound 2.53 µM): 0.402
relative viability ([13]; first compound 8 µM): 0.373
relative viability ([14]; first compound 0.253 µM): 0.39
relative viability ([14]; first compound 0.8 µM): 0.416
relative viability ([14]; first compound 2.53 µM): 0.406
relative viability ([14]; first compound 8 µM): 0.522
relative viability ([15]; first compound 0.253 µM): 0.432
relative viability ([15]; first compound 0.8 µM): 0.443
relative viability ([15]; first compound 2.53 µM): 0.441
relative viability ([15]; first compound 8 µM): 0.47
relative viability ([16]; first compound 0.253 µM): 0.175
relative viability ([16]; first compound 0.8 µM): 0.197
relative viability ([16]; first compound 2.53 µM): 0.164
relative viability ([16]; first compound 8 µM): 0.135
relative viability ([17]; first compound 0.253 µM): 0.585
relative viability ([17]; first compound 2.53 µM): 0.655
relative viability ([17]; first compound 8 µM): 0.653
relative viability ([18]; first compound 0.253 µM): 0.738
relative viability ([18]; first compound 0.8 µM): 0.766
relative viability ([18]; first compound 2.53 µM): 0.778
relative viability ([18]; first compound 8 µM): 0.78
relative viability ([19]; first compound 0.253 µM): 0.234
relative viability ([19]; first compound 0.8 µM): 0.278
relative viability ([19]; first compound 2.53 µM): 0.285
relative viability ([19]; first compound 8 µM): 0.232
relative viability ([20]; first compound 0.253 µM): 0.886
relative viability ([20]; first compound 2.53 µM): 1.22
relative viability ([20]; first compound 8 µM): 1.12
relative viability ([21]; first compound 0.253 µM): 0.227
relative viability ([21]; first compound 0.8 µM): 0.277
relative viability ([21]; first compound 2.53 µM): 0.256
relative viability ([21]; first compound 8 µM): 0.232
relative viability ([22]; first compound 0.253 µM): 1.01
relative viability ([22]; first compound 2.53 µM): 1.02
relative viability ([22]; first compound 8 µM): 1.02
relative viability ([23]; first compound 0.253 µM): 0.886
relative viability ([23]; first compound 0.8 µM): 0.755
relative viability ([23]; first compound 2.53 µM): 0.844
relative viability ([23]; first compound 8 µM): 0.849

Nc1cccc2c1CN(C1CCC(=O)NC1=O)C2=O (stereo unspecified) [Lenalidomide] + Nc1ncn([C@H]2C[C@H](O)[C@@H](CO)O2)c(=O)n1 [Decitabine] (partner 2 µM)
relative viability ([1]; first compound 0.253 µM): 0.562
relative viability ([1]; first compound 2.53 µM): 0.557
relative viability ([1]; first compound 8 µM): 0.411
relative viability ([2]; first compound 0.253 µM): 0.597
relative viability ([2]; first compound 2.53 µM): 0.538
relative viability ([2]; first compound 8 µM): 0.561
relative viability ([3]; first compound 0.253 µM): 0.199
relative viability ([3]; first compound 0.8 µM): 0.189
relative viability ([3]; first compound 2.53 µM): 0.24
relative viability ([3]; first compound 8 µM): 0.226
relative viability ([4]; first compound 0.253 µM): 0.402
relative viability ([4]; first compound 0.8 µM): 0.476
relative viability ([4]; first compound 2.53 µM): 0.64
relative viability ([4]; first compound 8 µM): 0.649
relative viability ([5]; first compound 0.253 µM): 0.337
relative viability ([5]; first compound 0.8 µM): 0.377
relative viability ([5]; first compound 2.53 µM): 0.366
relative viability ([5]; first compound 8 µM): 0.354
relative viability ([6]; first compound 0.253 µM): 0.766
relative viability ([6]; first compound 2.53 µM): 0.763
relative viability ([6]; first compound 8 µM): 0.594
relative viability ([7]; first compound 0.253 µM): 0.566
relative viability ([7]; first compound 0.8 µM): 0.573
relative viability ([7]; first compound 2.53 µM): 0.646
relative viability ([7]; first compound 8 µM): 0.552
relative viability ([8]; first compound 0.253 µM): 0.205
relative viability ([8]; first compound 0.8 µM): 0.269
relative viability ([8]; first compound 2.53 µM): 0.248
relative viability ([8]; first compound 8 µM): 0.231
relative viability ([9]; first compound 0.253 µM): 0.416
relative viability ([9]; first compound 0.8 µM): 0.395
relative viability ([9]; first compound 2.53 µM): 0.491
relative viability ([9]; first compound 8 µM): 0.409
relative viability ([10]; first compound 0.253 µM): 0.247
relative viability ([10]; first compound 0.8 µM): 0.253
relative viability ([10]; first compound 2.53 µM): 0.274
relative viability ([10]; first compound 8 µM): 0.241
relative viability ([11]; first compound 0.253 µM): 0.778
relative viability ([11]; first compound 0.8 µM): 0.637
relative viability ([11]; first compound 2.53 µM): 0.99
relative viability ([11]; first compound 8 µM): 0.616
relative viability ([12]; first compound 0.253 µM): 0.731
relative viability ([12]; first compound 0.8 µM): 0.637
relative viability ([12]; first compound 2.53 µM): 0.703
relative viability ([12]; first compound 8 µM): 0.558
relative viability ([13]; first compound 0.253 µM): 0.684
relative viability ([13]; first compound 0.8 µM): 0.704
relative viability ([13]; first compound 2.53 µM): 0.763
relative viability ([13]; first compound 8 µM): 0.711
relative viability ([14]; first compound 0.253 µM): 0.375
relative viability ([14]; first compound 0.8 µM): 0.536
relative viability ([14]; first compound 2.53 µM): 0.381
relative viability ([14]; first compound 8 µM): 0.386
relative viability ([15]; first compound 0.253 µM): 0.556
relative viability ([15]; first compound 0.8 µM): 0.5
relative viability ([15]; first compound 2.53 µM): 0.59
relative viability ([15]; first compound 8 µM): 0.648
relative viability ([16]; first compound 0.253 µM): 0.312
relative viability ([16]; first compound 0.8 µM): 0.177
relative viability ([16]; first compound 2.53 µM): 0.36
relative viability ([16]; first compound 8 µM): 0.187
relative viability ([17]; first compound 0.253 µM): 0.791
relative viability ([17]; first compound 0.8 µM): 0.528
relative viability ([17]; first compound 2.53 µM): 0.772
relative viability ([17]; first compound 8 µM): 0.647
relative viability ([18]; first compound 0.253 µM): 0.719
relative viability ([18]; first compound 0.8 µM): 0.817
relative viability ([18]; first compound 2.53 µM): 0.782
relative viability ([18]; first compound 8 µM): 0.632
relative viability ([19]; first compound 0.253 µM): 0.446
relative viability ([19]; first compound 2.53 µM): 0.457
relative viability ([19]; first compound 8 µM): 0.393
relative viability ([20]; first compound 0.253 µM): 0.946
relative viability ([20]; first compound 0.8 µM): 0.781
relative viability ([20]; first compound 2.53 µM): 1.01
relative viability ([20]; first compound 8 µM): 0.853
relative viability ([21]; first compound 0.253 µM): 0.226
relative viability ([21]; first compound 0.8 µM): 0.236
relative viability ([21]; first compound 2.53 µM): 0.256
relative viability ([21]; first compound 8 µM): 0.221
relative viability ([22]; first compound 0.253 µM): 0.874
relative viability ([22]; first compound 0.8 µM): 0.927
relative viability ([22]; first compound 2.53 µM): 0.88
relative viability ([22]; first compound 8 µM): 0.816
relative viability ([23]; first compound 0.253 µM): 0.414
relative viability ([23]; first compound 0.8 µM): 0.334
relative viability ([23]; first compound 2.53 µM): 0.421
relative viability ([23]; first compound 8 µM): 0.356

From the supplement of paper PMC10307832
